pIC50: −log10 of the molar value. Like-named read-outs stand apart in the source and are kept apart here.
What was measured:
[1] = target: T1, KRAS G12C::SOS1 protein-protein interaction (Homo sapiens, UniProt P01116, C118S/C51S/C80L/G12C); assay: KRAS::SOS1 AlphaScreen binding assay; settings: KRAS G12C::SOS1 AlphaScreen
T1 construct: His6 (N); host or cells: E. coli
Excerpt: KRAS::SOS1 AlphaScreen Binding Assay
Reagents: • GST-tagged SOS1 (564_1049_GST_TEV_ECO) produced in-house • GST-TEV-SOS1 (564-1049) is purchased from Viva Biotech Ltd. • The expression construct of KRAS G12C (amino acids 1-169 of reference sequence P01116-2 (uniprot), with additional mutations: C51S, C80L, and C118S) containing a C-terminal avi-tag was obtained by gene synthesis (GeneArt, Thermo Fisher) in donor vector (pDONR-221) and transferred by recombinant cloning into pDEST17 vector bearing an N-terminal His6-tag. The protein was expressed in E. coli and the purified protein was biotinylated with the E. coli biotin ligase (BirA) before usage. • GDP (Sigma Cat No G7127) • AlphaLISA Glutathione Acceptor Beads (PerkinElmer, Cat No AL109) • AlphaScreen Streptavidin Donor Beads (PerkinElmer Cat No 6760002) • Assay plates: Proxiplate-384 PLUS, white (PerkinElmer, Cat No 6008289)
Assay Buffer: • 1×PBS • 0.1% BSA • 0.05% Tween 20
7.5 nM (final assay concentration) KRAS G12C, 10 μM (final assay concentration) GDP and 5 nM (final assay concentration) GST-SOS1 are mixed in assay buffer prior to use and kept at room temperature.
AlphaLISA Glutathione Acceptor Beads and AlphaScreen Streptavidin Donor Beads are mixed in assay buffer at a concentration of 10 μg/mL (final assay concentration) each prior to use and kept at room temperature.
Compounds are diluted to a final start concentration of 100 μM and are tested in duplicate. Assay-ready plates (ARPs) are generated using an Access Labcyte Workstation with a Labcyte Echo 550 or 555 accoustic dispenser. For compound a start concentration of 100 μM, 150 nL of compound solution is transferred per well in 11 concentrations in duplicate with serial 1:5 dilutions.
The assay is run using a fully automated robotic system in a darkened room below 100 Lux. 10 μL of KRAS::SOS1 GDP mix is added into columns 1-24 to the 150 nL of compound solution (final dilution in the assay 1:100, final DMSO concentration 1%).
After 30 minutes incubation time 5 μL of bead mix is added into columns 1-23. Plates are kept at room temperature in a darkened incubator. After further 60 minutes incubation, the signal is measured using a PerkinElmer Envision HTS Multilabel Reader using the AlphaScreen specifications from PerkinElmer. Each plate contains the following controls: • diluted DMSO+KRAS::SOS1 GDP mix+bead mix • diluted DMSO+KRAS::SOS1 GDP mix
IC50 values are calculated and analyzed using a 4 parametric logistic model.
Tables of example compounds disclosed herein contain IC50 values determined using the above assay.

[2] = system: ERK phosphorylation in NCI-H358_Cas9_SOS2; assay: ERK phosphorylation assay 2 (AlphaLISA SureFire Ultra p-ERK1/2), SOS2 knock-out; format: cell-based; settings: Homo sapiens, NCI-H358; assay 2 (marked with *); read-out: IC50 H358 pERK
Excerpt: ERK Phosphorylation Assay
Materials Used for the Assay;

[3] = target: Ba/F3 cells bearing a KRAS G12C mutation (Homo sapiens, UniProt P01116, G12C, cells depend on it); assay: Ba/F3 cell model proliferation assay (AlamarBlue, 72 h); format: cell-based
Procedure: Ba/F3 Cell Model Generation and Proliferation Assay
Plasmids containing KRASG12 mutants were obtained from GeneScript. To generate KRASG12-dependent Ba/F3 models, Ba/F3 cells were transduced with retroviruses containing vectors that harbor KRASG12 isoforms. Platinum-E cells (Cell Biolabs) were used for retrovirus packaging. Retrovirus was added to Ba/F3 cells. To ensure infection, 4 μg/mL polybrene was added and cells were spinfected. […] Cells with an infection efficiency of 10% to 20% were further cultivated and puromycin selection with 1 μg/mL was initiated. As a control, parental Ba/F3 cells were used to show selection status. Selection was considered successful when parental Ba/F3 cells cultures died. To evaluate the transforming potential of KRASG12 mutations, the growth medium was no longer supplemented with IL-3. Ba/F3 cells harboring the empty vector were used as a control. Approximately ten days before conducting the experiments, puromycin was left out.
All treatments were performed in technical duplicates. The assay is run using a fully automated robotic system. Treated cells were incubated for 72 h at 37° C. with 5% CO2. AlamarBlue™ (ThermoFisher), a viability stain, was added and fluorescence measured in the PerkinElmer Envision HTS Multilabel Reader.

[4] = Plasma protein binding (equilibrium dialysis), mouse plasma; format: in vitro ADME; settings: read-out: PPB mouse fu
Procedure: (§1) Plasma Protein Binding (PPB)
(§2) Binding of test compound to plasma was determined using equilibrium dialysis (ED) and quantitative mass spectrometry interfaced with liquid chromatography (LC-MS). In brief, ED was performed with dialysis devices consisting of two chambers separated by a semipermeable membrane with a molecular weight cut-off of 5-10 kg/mol. One chamber was filled with commercially sourced plasma (mouse and human plasma, respectively) or serum (10% FCS in PBS) containing 1-10 μmol/L test compound and the other chamber was filled with phosphate-buffer saline (PBS) with or without dextran. The dialysis chamber was incubated for 3-5 hours at 37° C. After incubation, protein was precipitated from aliquots of each chamber and the concentration of test compound in the supernatant of the plasma-containing compartment (cplasma) and of the buffer-containing compartment (Cbuffer) was determined by LC-MS. The fraction of unbound test compound (not bound to plasma) (fu) was calculated according to the following equation: […]

[5] = Plasma protein binding (equilibrium dialysis), human plasma; format: in vitro ADME; settings: read-out: PPB human fu
Procedure: as §1, §2

[6] = Plasma protein binding (equilibrium dialysis), serum 10% FCS in PBS; format: in vitro ADME; settings: bovine, 10% FCS in PBS (serum), read-out: PPB 10% FCS fu
Procedure: as §1, §2

[7] = Ba/F3 KRAS G12C cells, 72 h, 10% FCS, uncorrected, read-out: IC50 Ba/F3 KRASG12C
[8] = corrected by plasma protein binding in 10% FCS (fraction unbound), read-out: IC50 Ba/F3 KRASG12C (corrected)

Sequence of Ba/F3 cells bearing a KRAS G12C mutation (P01116 whole entry G12C): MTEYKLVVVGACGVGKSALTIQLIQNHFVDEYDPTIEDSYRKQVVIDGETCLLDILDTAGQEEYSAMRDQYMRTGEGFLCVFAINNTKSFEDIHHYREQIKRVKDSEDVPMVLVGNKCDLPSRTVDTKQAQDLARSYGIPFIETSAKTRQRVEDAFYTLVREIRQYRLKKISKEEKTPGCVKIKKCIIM
T1 sequence (P01116 1-169 isoform P01116-2 G12C/C51S/C80L/C118S): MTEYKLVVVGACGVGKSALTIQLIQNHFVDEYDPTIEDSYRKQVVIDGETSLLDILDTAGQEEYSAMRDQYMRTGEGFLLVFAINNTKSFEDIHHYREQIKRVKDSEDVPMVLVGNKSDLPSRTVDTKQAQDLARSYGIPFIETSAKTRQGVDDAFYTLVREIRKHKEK

Row | SMILES | pIC50 [1] | pIC50 [2] | GI50 [3, 7] | GI50 [3, 8] | fraction unbound [4] | fraction unbound [5] | fraction unbound [6]
1 | C=CC(=O)N1CCN(c2cc(-c3cc(C4(C)CCCc5sc(N)c(C#N)c54)on3)nc(O[C@@H](C)[C@@H]3CCCN3C)n2)CC1 (some centres unmarked) [Ib-2] | 8.70 | 8.51 |  |  |  |  | 
2 | C=CC(=O)N1[C@H](C)CN(c2cc(O[C@@H](C)[C@@H]3CCCN3C)nc(-c3cc([C@@]4(C)CCCc5sc(N)c(C#N)c54)on3)n2)C[C@@H]1C [Ib-3] | 8.70 | 8.39 | 3.9 nM | 0.3 nM | 0.004 | 0.018 | 0.078
3 | C=CC(=O)N1CCC(Oc2cc(O[C@@H](C)[C@@H]3CCCN3C)nc(-c3cc([C@@]4(C)CCCc5sc(N)c(C#N)c54)on3)n2)CC1 [Ib-7] | 8.82 | 9.22 | 0.2 nM | 0.03 nM | 0.007 | 0.018 | 0.127
4 | C=CC(=O)N1CCC(Oc2cc(N3CCN(C)C[C@@H]3C)nc(-c3cc(C4(C)CCCc5sc(N)c(C#N)c54)on3)n2)CC1 (some centres unmarked) [Ib-8] | 7.89 | 7.90 | 13.5 nM | 2.67 nM | 0.001 | 0.014 | 0.198
5 | C=CC(=O)N1[C@@H](C)CN(c2nc(-c3cc([C@@]4(C)CCCc5sc(N)c(C#N)c54)on3)nc(O[C@@H](C)[C@@H]3CCCN3C)c2Cl)C[C@@H]1C [Ib-9] | 8.40 | 7.95 | 2.9 nM | 0.08 nM | 0.001 | 0.002 | 0.026
6 | C=C(F)C(=O)N1[C@@H](C)CN(c2nc(-c3cc([C@@]4(C)CCCc5sc(N)c(C#N)c54)on3)nc(O[C@@H](C)[C@@H]3CCCN3C)c2Cl)C[C@@H]1C [Ib-12] | 7.13 | 6.08 | 67.9 nM | 1.09 nM | < 0.0004 | < 0.00052 | 0.016
7 | C=C(F)C(=O)N1CCC(Oc2cc(N3CCN(C)C[C@@H]3C)nc(-c3cc(C4(C)CCCc5sc(N)c(C#N)c54)on3)n2)CC1 (some centres unmarked) [Ib-13] | 6.56 | 5.94 | 350 nM | 39.9 nM | < 0.0005 | 0.005 | 0.114
8 | COC/C=C/C(=O)N1CCN(c2cc(O[C@@H](C)[C@@H]3CCCN3C)nc(-c3cc(C4(C)CCCc5sc(N)c(C#N)c54)on3)n2)CC1 (some centres unmarked) [Ib-15] | 7.77 | 7.49 | 72.4 nM | 13.4 nM | 0.011 | 0.041 | 0.185
9 | COC/C=C/C(=O)N1CCN(c2cc(O[C@@H](C)[C@@H]3CCCN3C)nc(-c3cc([C@@]4(C)CCCc5sc(N)c(C#N)c54)on3)n2)CC12CC2 [Ib-16] | 7.38 | 6.01 | 124 nM | 5.45 nM | 0.002 | 0.02 | 0.044
10 | C=CC(=O)N1CCC(Oc2cc(O[C@@H](C)[C@@H]3CCCN3C)nc(-c3cc([C@@]4(C)CCCc5sc(N)c(C#N)c54)no3)n2)CC1 [Ic-6] | 8.80 | 9.30 | 0.7 nM | 0.07 nM | < 0.001 |  | 0.093
11 | C=CC(=O)N1CCN(c2cc(-c3cc([C@@]4(C)CCCc5sc(N)c(C#N)c54)sn3)nc(O[C@@H](C)[C@@H]3CCCN3C)n2)CC1 [Id-3] | 8.77 | 8.96 | < 1.3 nM |  |  |  | 
12 | C=C(F)C(=O)N1CCN(c2cc(O[C@@H](C)[C@@H]3CCCN3C)nc(-c3cc(C4(C)CCCc5sc(N)c(C#N)c54)sn3)n2)CC1 (some centres unmarked) [Id-7] | 8.30 | 7.69 | 5.4 nM |  |  |  | 
13 | C=C(F)C(=O)N1CCC(Oc2cc(O[C@@H](C)[C@@H]3CCCN3C)nc(-c3cc([C@@]4(C)CCCc5sc(N)c(C#N)c54)sn3)n2)CC1 [Id-8] | 8.52 | 7.79 | 4.3 nM | 1.51 nM | < 0.0009 | 0.004 | 0.352
14 | COC/C=C/C(=O)N1CCN(c2cc(O[C@@H](C)[C@@H]3CCCN3C)nc(-c3cc([C@@]4(C)CCCc5sc(N)c(C#N)c54)sn3)n2)CC12CC2 [Id-9] | 7.68 | 7.23 | 44 nM | 14.8 nM | 0.003 |  | 0.336
15 | C=C(F)C(=O)N1CCN(c2nc(OC[C@@H]3CCCN3C)nc3c2CCN(c2cccc4cccc(Cl)c24)C3)C[C@@H]1CC#N [adagrasib, reference compound] |  |  |  |  | 0.004 | 0.014 | 0.43

Source: patent US11945812B2, “Annulated 2-amino-3-cyano thiophenes and derivatives for the treatment of cancer” (Boehringer Ingelheim International GmbH, priority 2020, dated 2024)
